Test results as given in patent US11806790B2, “Biosynthesis of metal nanoparticles” (KING SAUD UNIVERSITY, priority 2019, dated 2023).

Legend:
Set-up in all cases: key: R = resistant; S = susceptible; BLAC = Beta-lactamase positive
E. coli (R) = test: Susceptibility test of Gram negative Bacteria; type: cell-based
A. baumannii (S) = test: Susceptibility test of Gram negative Bacteria; type: cell-based
A. baumannii (R) = test: Susceptibility test of Gram negative Bacteria; type: cell-based
E. coli (S) = test: Susceptibility test of Gram negative Bacteria; type: cell-based
MRSA = test: Susceptibility test of Gram positive Bacteria; type: cell-based, Methicillin-resistant S. aureus
S. epidermidis (R) = test: Susceptibility test of Gram positive Bacteria; type: cell-based
S. aureus (S) = test: Susceptibility test of Gram positive Bacteria; type: cell-based
S. epidermidis (S) = test: Susceptibility test of Gram positive Bacteria; type: cell-based

Question: Which results are given for `CC1(C)S[C@@H]2[C@H](NC(=O)[C@H](N)c3ccc(O)cc3)C(=O)N2[C@H]1C(=O)O` [Amoxicillin]?
Answer: Susceptibility test (E. coli (R)): R; Susceptibility test (A. baumannii (S)): S; Susceptibility test (A. baumannii (R)): R; Susceptibility test (E. coli (S)): S

Question: For `CC1(C)S[C@@H]2[C@H](NC(=O)[C@H](N)c3ccccc3)C(=O)N2[C@H]1C(=O)O` [Ampicillin], which Susceptibility test (MRSA) is on record?
Answer: The Susceptibility test was “BLAC”.

Question: What about the Susceptibility test (E. coli (R)) of the same molecule?
Answer: The Susceptibility test was “R”.

Question: What about the Susceptibility test (S. epidermidis (R)) of the same molecule?
Answer: Its Susceptibility test is “R”.

Question: And the Susceptibility test (S. aureus (S))?
Answer: Its Susceptibility test is “BLAC”.

Question: What about the Susceptibility test (A. baumannii (R)) of the same molecule?
Answer: Its Susceptibility test is “R”.

Question: What about the Susceptibility test (E. coli (S)) of the same molecule?
Answer: The Susceptibility test was “S”.

Question: And the Susceptibility test (S. epidermidis (S))?
Answer: The Susceptibility test was “S”.

Question: `C[C@H]1[C@H](NC(=O)/C(=N\OC(C)(C)C(=O)O)c2csc(N)n2)C(=O)N1S(=O)(=O)O` [Aztreonam] was tested. Which Susceptibility test (E. coli (R)) did it give?
Answer: Its Susceptibility test is “R”.

Question: And the Susceptibility test (A. baumannii (R))?
Answer: Its Susceptibility test is “R”.

Question: What about the Susceptibility test (E. coli (S)) of the same molecule?
Answer: The Susceptibility test was “S”.

Question: Which Susceptibility test (E. coli (R)) does the source give for `CC(=O)OCC1=C(C(=O)O)N2C(=O)[C@@H](NC(=O)Cc3cccs3)[C@H]2SC1` [Cefalotin] here?
Answer: Its Susceptibility test is “R”.

Question: And the Susceptibility test (E. coli (S))?
Answer: The Susceptibility test was “S”.

Question: What does the source list for `C=CC1=C(C(=O)O)N2C(=O)[C@@H](NC(=O)/C(=N\OCC(=O)O)c3csc(N)n3)[C@H]2SC1` [Cefixime]?
Answer: Susceptibility test (E. coli (R)): R; Susceptibility test (A. baumannii (R)): R; Susceptibility test (E. coli (S)): S

Question: For `CO/N=C(\C(=O)N[C@@H]1C(=O)N2C(C(=O)O)=C(COC(C)=O)CS[C@H]12)c1csc(N)n1` [Cefotaxime], which Susceptibility test (S. epidermidis (R)) is on record?
Answer: The Susceptibility test was “R”.

Question: And the Susceptibility test (A. baumannii (S))?
Answer: Its Susceptibility test is “S”.

Question: And the Susceptibility test (A. baumannii (R))?
Answer: Its Susceptibility test is “R”.

Question: Which results are given for `CO[C@@]1(NC(=O)Cc2cccs2)C(=O)N2C(C(=O)O)=C(COC(N)=O)CS[C@@H]21` [Cefoxitin]?
Answer: Susceptibility test (MRSA): Positive.; Susceptibility test (S. epidermidis (R)): R; Susceptibility test (S. aureus (S)): Negative.; Susceptibility test (A. baumannii (R)): R; Susceptibility test (S. epidermidis (S)): S

Question: Which results are given for `CO/N=C(\C(=O)N[C@@H]1C(=O)N2C(C(=O)O)=C(COC(N)=O)CS[C@H]12)c1ccco1` [Cefuroxime]?
Answer: Susceptibility test (E. coli (R)): R; Susceptibility test (A. baumannii (S)): S; Susceptibility test (A. baumannii (R)): R

Question: Which Susceptibility test (A. baumannii (R)) does the source give for `CO/N=C(\C(=O)N[C@@H]1C(=O)N2C(C(=O)O)=C(CSc3nc(=O)c(O)nn3C)CS[C@H]12)c1csc(N)n1` [Ciftriaxone] here?
Answer: The Susceptibility test was “R”.

Question: How did the Susceptibility test (MRSA) turn out when `O=C(O)c1cn(C2CC2)c2cc(N3CCNCC3)c(F)cc2c1=O` [Ciprofloxacin] was run?
Answer: Its Susceptibility test is “S”.

Question: And the Susceptibility test (S. epidermidis (R))?
Answer: Its Susceptibility test is “R”.

Question: What about the Susceptibility test (S. aureus (S)) of the same molecule?
Answer: The Susceptibility test was “S”.

Question: And the Susceptibility test (S. epidermidis (S))?
Answer: The Susceptibility test was “S”.

Question: For `CCC[C@@H]1C[C@@H](C(=O)N[C@@H]([C@H]2O[C@H](SC)[C@H](O)[C@@H](O)[C@H]2O)[C@H](C)Cl)N(C)C1` [Clindamycin], which Susceptibility test (S. epidermidis (R)) is on record?
Answer: The Susceptibility test was “R”.

Question: What about the Susceptibility test (S. aureus (S)) of the same molecule?
Answer: Its Susceptibility test is “S”.

Question: And the Susceptibility test (S. epidermidis (S))?
Answer: The Susceptibility test was “S”.

Question: With `CC[C@H]1OC(=O)[C@H](C)[C@@H](O[C@H]2C[C@@](C)(OC)[C@@H](O)[C@H](C)O2)[C@H](C)[C@@H](O[C@@H]2O[C@H](C)C[C@H](N(C)C)[C@H]2O)[C@](C)(O)C[C@@H](C)C(=O)[C@H](C)[C@@H](O)[C@]1(C)O` [Erythromycin] as the molecule, how does the Susceptibility test (S. epidermidis (R)) read?
Answer: Its Susceptibility test is “R”.

Question: What about the Susceptibility test (S. aureus (S)) of the same molecule?
Answer: Its Susceptibility test is “R”.

Question: And the Susceptibility test (S. epidermidis (S))?
Answer: Its Susceptibility test is “S”.

Question: `C[C@@H](O)[C@H]1C(=O)N2C(C(=O)O)=C(SCCN=CN)C[C@H]12` [Imipenem] was tested. Which Susceptibility test (MRSA) did it give?
Answer: Its Susceptibility test is “R”.

Question: And the Susceptibility test (S. epidermidis (R))?
Answer: The Susceptibility test was “R”.

Question: And the Susceptibility test (S. aureus (S))?
Answer: Its Susceptibility test is “S”.

Question: What about the Susceptibility test (S. epidermidis (S)) of the same molecule?
Answer: Its Susceptibility test is “S”.

Question: How did the Susceptibility test (MRSA) turn out when `C/C(=C\C(=O)OCCCCCCCCC(=O)O)C[C@@H]1OC[C@H](C[C@@H]2O[C@H]2[C@@H](C)[C@H](C)O)[C@@H](O)[C@H]1O` [Mupirocin] was run?
Answer: Its Susceptibility test is “S”.

Question: What about the Susceptibility test (S. epidermidis (R)) of the same molecule?
Answer: Its Susceptibility test is “R”.

Question: What about the Susceptibility test (S. aureus (S)) of the same molecule?
Answer: The Susceptibility test was “S”.

Question: What about the Susceptibility test (S. epidermidis (S)) of the same molecule?
Answer: The Susceptibility test was “S”.

Question: Which Susceptibility test (A. baumannii (R)) does the source give for `O=C1CN(/N=C/c2ccc([N+](=O)[O-])o2)C(=O)N1` [Nitrofurantoin] here?
Answer: The Susceptibility test was “R”.

Question: With `Cc1onc(-c2ccccc2)c1C(=O)N[C@@H]1C(=O)N2[C@@H]1SC(C)(C)[C@@H]2C(=O)O` [Oxacillin] as the molecule, how does the Susceptibility test (MRSA) read?
Answer: Its Susceptibility test is “R”.

Question: And the Susceptibility test (S. epidermidis (R))?
Answer: The Susceptibility test was “R”.

Question: And the Susceptibility test (S. aureus (S))?
Answer: Its Susceptibility test is “S”.

Question: And the Susceptibility test (S. epidermidis (S))?
Answer: Its Susceptibility test is “S”.

Question: Which results are given for `CC1(C)S[C@@H]2[C@H](NC(=O)Cc3ccccc3)C(=O)N2[C@H]1C(=O)O` [Penicillin G]?
Answer: Susceptibility test (MRSA): BLAC; Susceptibility test (S. epidermidis (R)): R; Susceptibility test (S. aureus (S)): BLAC; Susceptibility test (S. epidermidis (S)): S

Question: What does the source list for Amoxicillin-Clavulanate?
Answer: Susceptibility test (MRSA): R; Susceptibility test (S. epidermidis (R)): R; Susceptibility test (S. aureus (S)): S; Susceptibility test (A. baumannii (R)): R; Susceptibility test (S. epidermidis (S)): S

Question: Which Susceptibility test (MRSA) does the source give for Gentamycin here?
Answer: The Susceptibility test was “S”.

Question: What about the Susceptibility test (S. epidermidis (R)) of the same molecule?
Answer: Its Susceptibility test is “R”.

Question: What about the Susceptibility test (S. aureus (S)) of the same molecule?
Answer: The Susceptibility test was “S”.

Question: And the Susceptibility test (S. epidermidis (S))?
Answer: Its Susceptibility test is “S”.

Question: Which results are given for Trimethoprim-Sulfamethoxazole?
Answer: Susceptibility test (MRSA): S; Susceptibility test (S. epidermidis (R)): R; Susceptibility test (S. aureus (S)): S; Susceptibility test (S. epidermidis (S)): S
